According to paper PMC13233820, “Recruitment of Mre11 to recombination sites during meiosis” (Nature Communications, 2026):

Columns and labels:
[1] = tested on: Mre11^myc yeast strains; assay: MMS and CPT sensitivity assay (spotted serial dilutions); assay type: cell-based, Saccharomyces cerevisiae; conditions: ten-fold serial dilutions on YPD; for Sensitivity of mre11-ΔC49 mutant (in words): mre11-ΔC49 strain; for Sensitivity of mre11-ΔIDR mutant (in words): mre11-ΔIDR strain compared with wild type
Method: (§1) Following standard protocols, strains were patched on YPG plates, mated and streaked on YPD plates, and selected diploid colonies grown in liquid YPD at 30 °C, 250 rpm, overnight. For meiotic synchronization, diploid cultures grown overnight in YPD were transferred to YPA (1% yeast extract, 2% peptone, 1% potassium acetate) at OD600 0.2 and grown for 12–14 h at 30 °C, 250 rpm. Once the cultures reached OD600 between 1.2–1.6, cells were washed once with prewarmed sterile water and immediately transferred to sporulation medium supplemented with amino acids (320 µL amino acid complementation media for 100 mL of sporulation media (SPM)) and were kept shaking at 30 °C, 250 rpm during the entire meiotic time-course. For MMS and CPT (Sigma) sensitivity assays, serial dilutions of overnight cultures were spotted on freshly prepared YPD-MMS or YPD-CPT plates containing the indicated percentage of MMS or CPT, respectively. Plates were grown for two days at 30 °C. For immunofluorescence of vegetatively growing cells, overnight cultures were refreshed by diluting to OD600 0.2 and grown for 3-4 hours to reach OD600 1.2–1.4 before subjecting to MMS or MMS followed by 5% 1,6-hexanediol treatment. For 5% 1,6-hexanediol treatment, cells were first converted to spheroplasts and then treated with 5% 1,6-hexanediol for 4-5 min. Spheroplasts were then immediately washed, lysed, and fixed using the protocol described below.

[2] = tested on: MMS-induced Mre11^myc foci in vegetatively growing yeast; assay: Immunofluorescence of MMS-induced Mre11myc foci, vegetative yeast nuclear spreads; assay type: cell-based, Saccharomyces cerevisiae; conditions: MMS-treated, no hexanediol
Method: as §1
Meiotic cultures were harvested 4 h after transfer to SPM, washed with sterile cold water, and resuspended in 1 M sorbitol, 1 × PBS (pH 7), 10 mM DTT, 0.5 mg/ml zymolyase 20 T, and incubated for 30 mins at 30 °C with gentle shaking. […]
Slides were blocked with 90% FBS, 1 × PBS for 1 h at room temperature in a humid chamber and then incubated with primary antibody (mouse mAb anti-myc, 1:200 (2276S, Cell Signaling Technology), rabbit anti-phospho H2A-S129, 1:200 (ab15083, abcam)) diluted in 3% BSA, 1 × PBS in a humid chamber for 2 h at 37 °C or overnight at 4 °C. […] Images were captured on a Zeiss Axio Observer with a 100 ×/1.4 NA oil immersion objective and were analyzed in ImageJ.

[3] = tested on: Mre11 condensates; assay type: biochemical, Saccharomyces cerevisiae; conditions: 500 mM NaCl, brief exposure
Method: Experiments were performed without PEG. b, d Effect of DNase I, in the absence of PEG, on (b) Mre11 (n = 9 (no treatment) and 11 (DNase I)) and (d) MRX (n = 9 (no treatment) and 11 (DNase I)) condensates. Condensates were pre-assembled for 20 min with 5.7 nM pUC19 prior to challenge. Quantification represents total foci intensity (green) in a field of view and total number of foci per 1000 µm^2 (magenta). Foci intensity is normalized to the mean intensity of samples with DNA for (a, c) and untreated samples for (b, d). Error bars represent mean ± SD from the indicated (n) fields of view. e, f Effect of the presence of 5% PEG-3350 on (e) Mre11 (n = 12) and (f) MRX (n = 11) condensate formation. Quantification represents total foci intensity (green) in a field of view (normalized to the mean of + PEG images) and total number of foci per 1000 µm^2 (magenta). Error bars represent mean ± SD from the indicated (n) fields of view. g–j Effect of challenge with 5% 1,6-hexanediol and 0.5 M NaCl on (g, h) Mre11 and (i, j) MRX condensates. […] In the control reaction, an equivalent volume (1/20) of water was added instead of hexanediol. […]
(§2) Proteins were diluted to a 10 × stock of their appropriate working concentrations in their respective storage buffers. […] Images were analyzed with ImageJ using a custom-made script. […] Data were analyzed using Graphpad Prism 10.4.0.

[4] = tested on: MRX condensates; assay type: biochemical, Saccharomyces cerevisiae; conditions: 500 mM NaCl, brief exposure
Method: Experiments were performed without PEG. b, d Effect of DNase I, in the absence of PEG, on (b) Mre11 (n = 9 (no treatment) and 11 (DNase I)) and (d) MRX (n = 9 (no treatment) and 11 (DNase I)) condensates. Condensates were pre-assembled for 20 min with 5.7 nM pUC19 prior to challenge. Quantification represents total foci intensity (green) in a field of view and total number of foci per 1000 µm^2 (magenta). Foci intensity is normalized to the mean intensity of samples with DNA for (a, c) and untreated samples for (b, d). Error bars represent mean ± SD from the indicated (n) fields of view. e, f Effect of the presence of 5% PEG-3350 on (e) Mre11 (n = 12) and (f) MRX (n = 11) condensate formation. Quantification represents total foci intensity (green) in a field of view (normalized to the mean of + PEG images) and total number of foci per 1000 µm^2 (magenta). Error bars represent mean ± SD from the indicated (n) fields of view. g–j Effect of challenge with 5% 1,6-hexanediol and 0.5 M NaCl on (g, h) Mre11 and (i, j) MRX condensates. Condensates were assembled for 20 min prior to challenge and incubated for 15 min and 10 min, respectively, after challenge. […]
as §2

[5] = tested on: supercoiled pUC19 plasmid DNA; assay: In vitro condensation assay of MRX complex (fluorescence microscopy); assay type: biochemical; conditions: in the presence of plasmid DNA
Method: Fig. 1 Mre11 and the MRX complex assemble DNA-dependent condensates in vitro. a, c Effect of the presence of plasmid DNA on condensation of (a) Alexa488-labeled Mre11 (n = 11 and 9 fields of view for reactions without and with DNA, respectively) and (c) eGFP-tagged MRX (n = 11 (- DNA) and 9 ( + DNA)). Experiments were performed without PEG. b, d Effect of DNase I, in the absence of PEG, on (b) Mre11 (n = 9 (no treatment) and 11 (DNase I)) and (d) MRX (n = 9 (no treatment) and 11 (DNase I)) condensates. Condensates were pre-assembled for 20 min with 5.7 nM pUC19 prior to challenge. Quantification represents total foci intensity (green) in a field of view and total number of foci per 1000 µm^2 (magenta). Foci intensity is normalized to the mean intensity of samples with DNA for (a, c) and untreated samples for (b, d). […] Quantification represents total foci intensity (green) in a field of view (normalized to the mean of + PEG images) and total number of foci per 1000 µm^2 (magenta). […]
Fig. 2 The C-terminal IDR of Mre11 is required for condensation. a AlphaFold2 predicted model of Mre11 (AF-P32829-F1-v4). […] Quantification represents total fluorescence intensity (green) in a field of view and total number of foci per 1000 µm^2 (magenta). […]

Compound | Sensitivity of mre11-ΔC49 mutant (in words) [1] | Sensitivity of mre11-ΔIDR mutant (in words) [1] | other results
CC[C@@]1(O)C(=O)OCc2c1cc1n(c2=O)Cc2cc3ccccc3nc2-1 [CPT, camptothecin] | resistant | as resistant to MMS or CPT as wild-type cells | 
COS(C)(=O)=O [MMS, methylmethanesulfonate] | resistant | as resistant to MMS or CPT as wild-type cells | Percentage of aggregates [2]: 0
[Cl-].[Na+] [NaCl] |  |  | Effect on Mre11 foci intensity (in words) [3]: strongly reduced foci intensity; Effect on MRX foci intensity (in words) [4]: strongly reduced foci intensity
MRX: Mre11-Rad50-Xrs2 complex, recombinant from Sf9 cells |  |  | Condensate formation (in words) [5]: form large clusters visible by fluorescence microscopy
